One data set has as its system human islet β cells. Put plainly: Human islet studies, Ki67+ insulin+ cells. It is filed as cell-based. To be noted: human islets, 24 hr. How it is done:
Human islets were obtained from the Integrated Islet Distribution Program. All studies and protocols used were approved by the Joslin Diabetes Center's Committee on Human Studies (CHS#5-05). Upon arrival, islets were cultured overnight in Miami Media #1A (Cellgro). The islets were then starved in Final Wash/Culture Media (Cellgro, Manassas, Va.) for 3 hr prior to stimulation with serum (diluted to 10% v/v), LECM (diluted to 10% v/v), or HCM (diluted to 50% v/v) or Miami Media #1A supplemented with Sivelestat or GW311616A for 24 hr. Islets were used for immunostaining studies as described (El Ouaamari, et al., 2013).
Pancreases and islets were analyzed by immunostaining using anti-Ki67 (BD), anti-insulin (Abcam, Cambridge, Mass.), or anti-glucagon (Sigma-Aldrich, St. Louis, Mo.) antibodies. Quantification of replicating β- and α-cells was performed as described previously (El Ouaamari, et al., 2013).
In all experiments, cell counting was manually performed in a blinded fashion by a single observer. BrdU+ or Ki67+ β cells were assessed by immunofluorescence microscopy. Insulin+ cells showing nuclear DAPI staining were considered as β cells. Insulin+ cells showing nuclear colocalized staining for DAPI+ and Ki67+(or BrdU+) were counted as proliferating β cells. […]

In data set [1] the test system is primary mouse islets β-cells. Put plainly: Mouse islets cultured with recombinant SerpinB1, ovalbumin or elastase inhibitors, Ki67 immunostaining. The conditions noted are these: for mouse islet β-cell proliferation in vitro: Sivelestat (50 μg/ml) or GW311616A (100 μg/ml), FIG. 25 C. It is filed as cell-based. The method, then:
Five to six-week old male mouse islets were cultured in the presence of different molecules for 48 h. Islet β-cell replication was assessed by Ki67 immunostaining studies. A) Representative images of islets stimulated with 100 or 1000 ng/ml of human recombinant SerpinB1. B) Quantification of Ki67+ insulin+ cells in islets stimulated with 1 to 1000 ng/ml of rSerpinB1 or 1000 ng/ml of ovalbumin (OVA). C) Representative images (left panel) and quantification (right panel) of Ki67+ insulin+ islet cells stimulated with Sivelestat (50 μg/ml) or GW311616A (100 μg/ml). D) Representative images of human islets stimulated for 24 hours with Sivelestat or GW311616A or control conditions.
To test whether SerpinB1 is a β-cell growth factor, we cultured freshly isolated primary mouse islets in presence of various doses of recombinant human SerpinB1 or ovalbumin (SerpinB14) and evaluated β-cell proliferation by Ki67 immunofluorescent staining (known to those of ordinary skill in the art).
To address whether SerpinB1 acts directly to stimulate β-cell proliferation, we cultured mouse islets in the presence of various doses of human recombinant SerpinB1 and a control (ovalbumin), and evaluated β-cell proliferation by Ki67 immunofluorescence staining (FIG. 21 A).
(§1) A major substrate of SerpinB1 is neutrophil elastase. To investigate whether the proliferative action of SerpinB1 is mediated by antagonizing neutrophil elastase activity, we assessed the ability of the neutrophil elastase inhibitor, Sivelestat (Sivelestat is the International Nonproprietary Name (INN) as given by the World Health Organization (WHO); the chemical name is: N-{2-[({4-[(2,2-dimethylpropanoyl)oxy]phenyl}sulfonyl)amino]benzoyl}glycine), to stimulate islet β-cell proliferation in vitro.

Data set [2] has as its system human (EndoC-βH1) β-cells. The experiment in a line: EndoC-βH1 cells treated with Sivelestat, Ki67. It is filed as cell-based. To be noted: 100 μg/ml.
Excerpt: as §1

The test system of data set [3] is islet β-cells. Put plainly: Continuous infusion of Sivelestat by osmotic pump for 2 weeks, β-cell replication. It is filed as in vivo, mouse. The conditions noted are these: 2-week infusion. The method, then: (§2) Five to six-week old mice were administrated with Sivelestat or GW311616A for 2 weeks. Islet β-cell and α-cell replication was assessed by immunostaining. A) Schematic of the experimental protocol of Sivelestat administration. B) Quantification of pancreatic sections harvested from animals stimulated with Sivelestat and immunostained for insulin/BrdU/DAPI or glucagon/BrdU/DAPI. C) Schematic of the experimental protocol of GW311616A delivery. D) Quantification of pancreatic sections dissected from GW311616A-treated males and immunostained for insulin/BrdU/DAPI or glucagon/BrdU/DAPI.
Five to six-week old male mice were continuously infused for 2 weeks with vehicle or Sivelestat at 150 or 300 μg/kg/day. Mice were injected during the second week with BrdU (100 mg/kg Body weight) and sacrificed 5 hour after last injection of BrdU. Pancreases were harvested for morphometric studies. A-B) Representative images and quantification of nuclei BrdU+ in insulin+ cells. C-D) Representative images and quantification of nuclei pHH3+ in insulin+ cells. E-F) Representative images and quantification of nuclei BrdU+ in glucagon+ cells. […]

For data set [4], the system named is islet β-cells. The experiment in a line: Daily oral gavage of GW311616A for 2 weeks, β-cell mass and replication. It is filed as in vivo, mouse. To be noted: 2 mg/kg/day. How it is done: as §2
Five to six-week old male mice were daily gavaged with GW311616A or vehicle (water) for 2 weeks. Mice were injected during the second week with BrdU (100 mg/kg Body weight) and sacrificed 5 hour after last injection of BrdU. Pancreases and other tissues were harvested for morphometric studies. A) Schematic of the experimental protocol of GW311616 administration. B) Pancreatic sections harvested from animals stimulated with GW311616 were immunostained for insulin/BrdU/DAPI (upper panel) or glucagon/BrdU/DAPI (lower panel). C) Quantification of β-cell mass. D) Quantification of insulin+BrdU+ cells. E) Quantification of glucagon+BrdU+ cells. F-G) Representative images and quantification of nuclei BrdU+ in liver, kidney, spleen, visceral and subcutaneous adipose tissue and skeletal muscle tissue.
To explore whether increased β-cell replication secondary to enhanced SerpinB1 activity can be recapitulated in vivo, we used pharmacological compounds Sivelestat (Kawabata, et al., 1991) and GW311616A (Macdonald, et al., 2001), that are selective inhibitors of elastase, one of the major substrates of SerpinB1. Using osmotic pumps, we delivered a continuous infusion of Sivelestat for a 2-week period followed by evaluating the number of replicating β-cells by BrdU incorporation (FIG. 20A). […] In a second approach we gavaged mice with the NE inhibitor, GW311616A, at a dose of 2 mg/kg/day for 2 weeks (FIG. 20C and FIG. 22 A). […] Moreover, cell proliferation was not increased in extra-pancreatic tissues including liver, skeletal muscle, visceral and subcutaneous adipose tissue, spleen and kidney (FIGS. 22 F & G).
For Sivelestat administration, mice were anesthetized, and osmotic pumps (ALZET) containing 100 μl of either vehicle or Sivelestat (Santa Cruz) were implanted subcutaneously. Sivelestat was dissolved in 50% DMSO and was administered at a dose of 150 or 300 μg/kg/day. Control mice were infused with DMSO 50% alone. GW311616A was administered into mice by daily oral gavage for two weeks. Mice received either GW311616A (2 mg/kg body weight) or vehicle.

Turning to `CC(C)(C)C(=O)Oc1ccc(S(=O)(=O)Nc2ccccc2C(=O)NCC(=O)O)cc1` [Sivelestat, N-{2-[({4-[(2,2-dimethylpropanoyl)oxy]phenyl}sulfonyl)amino]benzoyl}glycine], the “number of replicating insulin-producing cells (Ki67+ insulin+)” value with human islet β cells was “significantly higher”. Besides, the “mouse islet β-cell proliferation in vitro” value in data set [1] is reported as “directly increased”. Moreover, the “number of proliferating insulin+ cells” value in data set [1] (higher doses, e.g. 10 and 50 μg/ml) is listed as “substantial increase”. The β-cell proliferation entry in data set [1] (low doses 1 and 5 μg/ml) is “do not enhance β-cell proliferation”. Further, the “number of Ki67 positive β-cells compared to non-treated cells” value in data set [2] was “increased the number”. Besides, the “proliferation of glucagon-producing α-cells” value with islet β-cells [3] (300 μg/kg/day) is reported as “did not significantly alter”. Also, the “effect on β-cells by pHH3 staining” value in the data set with islet β-cells [3] is listed as “confirmed by pHH3 staining”.
With `CC(C)[C@@H]1C(=O)N(S(C)(=O)=O)[C@@H]2CCN(C(=O)/C=C/CN3CCCCC3)[C@H]21.Cl` [GW311616A], in the data set with islet β-cells [4], the “cell proliferation in extra-pancreatic tissues (liver, skeletal muscle, visceral and subcutaneous adipose tissue, spleen, kidney)” value is recorded as “not increased”; the “α-cell proliferation by BrdU incorporation” value was “not α-cell proliferation”; the β-cell mass result is “significantly enhanced β-cell mass”; the “β-cell proliferation by BrdU incorporation” value was “increased β-cell proliferation”. Further, in the data set on human islet β cells, the “number of replicating insulin-producing cells (Ki67+ insulin+)” value was “significantly higher”. The “mouse islet β-cell proliferation in vitro” value in data set [1] is reported as “directly increased”.

B1: ovalbumin: ovalbumin (SerpinB14), control protein (protein, UniProt P01012 2-386, looked up)
Ovalbumin: GSIGAASMEFCFDVFKELKVHHANENIFYCPIAIMSALAMVYLGAKDSTRTQINKVVRFDKLPGFGDSIEAQCGTSVNVHSSLRDILNQITKPNDVYSFSLASRLYAEERYPILPEYLQCVKELYRGGLEPINFQTAADQARELINSWVESQTNGIIRNVLQPSSVDSQTAMVLVNAIVFKGLWEKAFKDEDTQAMPFRVTEQESKPVQMMYQIGLFRVASMASEKMKILELPFASGTMSMLVLLPDEVSGLEQLESIINFEKLTEWTSSNVMEERKIKVYLPRMKMEEKYNLTSVLMAMGITDVFSSSANLSGISSAESLKISQAVHAAHAEINEAGREVVGSAEAGVDAASVSEEFRADHPFLFCIKHIATNAVLFFGRCVSP
Turning to B1, the “β-cell proliferation (Ki67)” value in data set [1] (1 μg/ml) was “normal low β-cell proliferation”.

B2: SerpinB1: recombinant human SerpinB1, serine peptidase inhibitor B1, 42 kD protein (protein)
chain: MEQLSSANTRFALDLFLALSENNPAGNIFISPFSISSAMAMVFLGTRGNTAAQLSKTFHFNTVEEVHSRFQSLNADINKRGASYILKLANRLYGEKTYNFLPEFLVSTQKTYGADLASVDFQHASEDARKTINQWVKGQTEGKIPELLASGMVDNMTKLVLVNAIYFKGNWKDKFMKEATTNAPFRLNKKDRKTVKMMYQKKKFAYGYIEDLKCRVLELPYQGEELSMVILLPDDIEDESTGLKKIEEQLTLEKLHEWTKPENLDFIEVNVSLPRFKLEESYTLNSDLARLGVQDLFNSSKADLSGMSGARDIFISKIVHKSFVEVNEEGTEAAAATAGIATFCMLMPEENFTADHPFLFFIRHNSSGSILFLGRFSSP
Turning to B2, in data set [1] (compared to ovalbumin at a similar concentration), the “concentration at which the increase reached statistical significance” value came out at 1 µg/mL. Also, the “Ki67+ insulin+ cells” value in data set [1] (various doses (1 to 1000 ng/ml), 48 h) was “dose-dependent increase”.

The record behind these values is patent US20160002316A1, “SERPINS: METHODS OF THERAPEUTIC BETA-CELL REGENERATION AND FUNCTION” (SANOFI, priority 2013, published 2016).
